The assay has as its target NK1 receptor (Homo sapiens, UniProt P25103). Description: NK1 receptor binding (inhibition of Substance P binding, Ki by Chang-Prusoff equation). From the text:
The in vitro and in vivo NK1, NK2 and NK3 activities of the compounds of Formula (I) can be determined by various procedures known in the art, such as a test for their ability to inhibit the activity of the NK1 agonist Substance P. The percent inhibition of neurokinin agonist activity is the difference between the percent of maximum specific binding (“MSB”) and 100%. The percent of MSB is defined by the following equation, wherein “dpm” represents “disintegrations per minute”:
[formula] The concentration at which the compound produces 50% inhibition of binding is then used to determine an inhibition constant (“Ki”) using the Chang-Prusoff equation.
The activities (potencies) for the compounds of the invention are determined by measuring their Ki values. […] Even more preferred are compounds having average Ki values of from 0.05 nM to about 5 nM for the NK1 receptor. Especially preferred compounds have NK1 average Ki values of from 0.05 nM to about 1 nM. Even more especially preferred compounds have NK1 average Ki values of from 0.05 nM to about 0.2 nM.

In patent publication US7354922B2, “Bridged ring NK1 antagonists” (Schering Corporation, priority 2004, dated 2008) one finds Ki data, which are given here for 17 compounds.

NK1 receptor, sequence (P25103 whole entry, species assumed): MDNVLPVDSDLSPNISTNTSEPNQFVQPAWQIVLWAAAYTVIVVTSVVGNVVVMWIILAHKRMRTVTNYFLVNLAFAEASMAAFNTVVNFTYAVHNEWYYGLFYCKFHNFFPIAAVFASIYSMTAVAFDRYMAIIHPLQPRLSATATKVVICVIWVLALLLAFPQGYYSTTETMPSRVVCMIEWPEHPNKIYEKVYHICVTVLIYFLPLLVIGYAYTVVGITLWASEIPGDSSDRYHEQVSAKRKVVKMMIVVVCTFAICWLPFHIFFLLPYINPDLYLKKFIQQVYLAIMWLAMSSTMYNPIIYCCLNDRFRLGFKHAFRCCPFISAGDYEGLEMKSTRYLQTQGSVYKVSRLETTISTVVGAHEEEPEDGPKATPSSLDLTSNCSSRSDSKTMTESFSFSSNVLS

The term Ki denotes the equilibrium dissociation constant of an inhibitor or competing ligand from its target. Lower therefore signals higher affinity. The compound `C[C@@H](OC[C@@]1(c2ccccc2)CC[C@]2(CO)CN1CC(=O)N2)c1cc(C(F)(F)F)cc(C(F)(F)F)c1` [Example 3a] yielded a Ki of 0.15 nM.

In the case of `C[C@@H](OC[C@@]1(c2ccccc2)CC[C@@H]2CN1CCN2)c1cc(C(F)(F)F)cc(C(F)(F)F)c1` [Example 4], the Ki worked out at 0.11 nM.

In the case of `C[C@@H](OC[C@@]1(c2ccccc2)CC[C@@H]2CN1CCN2C(N)=O)c1cc(C(F)(F)F)cc(C(F)(F)F)c1` [Example 5], the Ki was found to be 0.1 nM.

In turn, `C[C@@H](OC[C@@]1(c2ccccc2)CC[C@]2(CC#N)CN1CC(=O)N2)c1cc(C(F)(F)F)cc(C(F)(F)F)c1` [Example 8] registered a Ki of 0.12 nM. `COC[C@]12CC[C@@](CO[C@H](C)c3cc(C(F)(F)F)cc(C(F)(F)F)c3)(c3ccccc3)N(CC(=O)N1)C2` [Example 12]: the affinity, expressed as Ki, was 0.13 nM. With `C[C@@H](OC[C@@]1(c2ccccc2)CC[C@]2(COC(N)=O)CN1CC(=O)N2)c1cc(C(F)(F)F)cc(C(F)(F)F)c1` [Example 15], the Ki turned out to be 0.09 nM. `C[C@@H](OC[C@@]1(c2ccccc2)CC[C@]2(CC(N)=O)CN1CC(=O)N2)c1cc(C(F)(F)F)cc(C(F)(F)F)c1` [Example 16]: the Ki was 0.16 nM.

Turning to `C[C@@H](OC[C@@]1(c2ccccc2)CC[C@]2(Cn3cnnn3)CN1CC(=O)N2)c1cc(C(F)(F)F)cc(C(F)(F)F)c1` [Example 20], the Ki worked out at 0.15 nM. The compound `C[C@@H](OC[C@@]1(c2ccccc2)CC[C@]2(CN3CCCCC3=O)CN1CC(=O)N2)c1cc(C(F)(F)F)cc(C(F)(F)F)c1` [Example 30] displayed a Ki of 0.11 nM. The result for `C[C@@H](OC[C@@]1(c2ccccc2)CC[C@]2(CNC3CC3)CN1CC(=O)N2)c1cc(C(F)(F)F)cc(C(F)(F)F)c1` [Example 32] reads 0.11 nM; that for `CC(C)=NOC[C@]12CC[C@@](CO[C@H](C)c3cc(C(F)(F)F)cc(C(F)(F)F)c3)(c3ccccc3)N(CC(=O)N1)C2` [Example 33], 0.13 nM.

Consider `CSC[C@]12CC[C@@](CO[C@H](C)c3cc(C(F)(F)F)cc(C(F)(F)F)c3)(c3ccccc3)N(CC(=O)N1)C2` [Example 34], for which the Ki came to 0.07 nM. `C[C@@H](OC[C@@]1(c2ccccc2)CC[C@]2(CNS(C)(=O)=O)CN1CC(=O)N2)c1cc(C(F)(F)F)cc(C(F)(F)F)c1` [Example 38] came in with a Ki of 0.12 nM.

Consider `C[C@@H](OC[C@@]1(c2ccccc2)CC[C@@]2(NC(N)=O)CCCN1C2)c1cc(C(F)(F)F)cc(C(F)(F)F)c1` [Example 47], for which the Ki was 0.12 nM. Take `C[C@@H](OC[C@@]1(c2ccccc2)CC[C@]2(CO)CN1CC(=O)O2)c1cc(C(F)(F)F)cc(C(F)(F)F)c1` [Example 49]: the Ki was 0.16 nM.

The compound `C[C@@H](OC[C@@]1(c2ccccc2)CC[C@@]23COCCN2C(=O)CN1C3)c1cc(C(F)(F)F)cc(C(F)(F)F)c1` [Example 51] had a Ki of 0.12 nM.

`C[C@@H](OC[C@@]1(c2ccccc2)CC[C@]2(CO)CN1CCN2)c1cc(C(F)(F)F)cc(C(F)(F)F)c1` [Example 57] yielded a Ki of 0.12 nM.
